What all share (experiment): biochemical
Design in all cases: KINOMEscan competition binding, DNA-tagged kinase against immobilised ligand, qPCR read-out

One assay addresses MAP4K2 (Homo sapiens, UniProt Q12851). The note with it: read-out: Percent Control. The protocol:
(§1) The KINOMEscan^TM kinase assays[65] were performed by Eurofins DiscoverX Corporation. For each kinase, the assay relies on the ability of the tested compound to compete against an immobilised ligand for binding to the DNA-tagged kinase. RT-qPCR is then used to measure the quantity of kinase molecules bound to the immobilised ligand, which is decreased if the tested compound competed with the kinase-ligand interaction. An 11-point 3-fold serial dilution of IDX compound was prepared in 100% DMSO at 100× final test concentration and subsequently diluted to 1× in the assay. […]

A further assay deals with CSK (Homo sapiens, UniProt P41240). The note with it: read-out: Percent Control. The protocol:
as §1

The target in another assay is CSNK2A2 (Homo sapiens, UniProt P19784). The settings on record: read-out: Percent Control. The protocol:
as §1

The next assay deals with CDKL3 (Homo sapiens, UniProt Q8IVW4). The settings on record: read-out: Percent Control. The protocol:
as §1

Another assay has as its target T1, PFCDPK1(P.falciparum) (Plasmodium falciparum, UniProt P62344).
T1 construct: gene CDPK1
The settings on record: read-out: Percent Control. The protocol:
as §1

The next assay deals with MAP3K9 (Homo sapiens, UniProt P80192). The note with it: read-out: Percent Control. The protocol:
as §1

Another assay addresses IKBKE (Homo sapiens, UniProt Q14164). The note with it: read-out: Percent Control. The protocol: as §1
The target of another assay is PRKD2 (Homo sapiens, UniProt Q9BZL6). The settings on record: read-out: Percent Control. The protocol: as §1
The target of another assay is TAOK1 (Homo sapiens, UniProt Q7L7X3). The protocol:
as §1

The target in the next assay is STK32A (Homo sapiens, UniProt Q8WU08). The note with it: read-out: Percent Control. The protocol:
as §1

Assay [1] deals with T2, RSK4(Kin.Dom.1-N-terminal) (Homo sapiens, UniProt Q9UK32).
T2 construct: gene RPS6KA6; Kin.Dom.1 N-terminal
The settings on record: read-out: Percent Control. The protocol:
as §1

The next assay has as its target BMPR1A (Homo sapiens, UniProt P36894). The note with it: read-out: Percent Control. The protocol: as §1
Another assay deals with PAK2 (Homo sapiens, UniProt Q13177). The note with it: read-out: Percent Control. The protocol: as §1
For the next assay, the target named is MYLK4 (Homo sapiens, UniProt Q86YV6). The note with it: read-out: Percent Control. The protocol:
as §1

For a further assay, the target named is NEK5 (Homo sapiens, UniProt Q6P3R8). The note with it: read-out: Percent Control. The protocol:
as §1

The next assay concerns the target MARK1 (Homo sapiens, UniProt Q9P0L2). The settings on record: read-out: Percent Control. The protocol:
as §1

The next assay deals with PLK2 (Homo sapiens, UniProt Q9NYY3). The note with it: read-out: Percent Control. The protocol: as §1
PLK2, sequence (Q9NYY3 whole entry): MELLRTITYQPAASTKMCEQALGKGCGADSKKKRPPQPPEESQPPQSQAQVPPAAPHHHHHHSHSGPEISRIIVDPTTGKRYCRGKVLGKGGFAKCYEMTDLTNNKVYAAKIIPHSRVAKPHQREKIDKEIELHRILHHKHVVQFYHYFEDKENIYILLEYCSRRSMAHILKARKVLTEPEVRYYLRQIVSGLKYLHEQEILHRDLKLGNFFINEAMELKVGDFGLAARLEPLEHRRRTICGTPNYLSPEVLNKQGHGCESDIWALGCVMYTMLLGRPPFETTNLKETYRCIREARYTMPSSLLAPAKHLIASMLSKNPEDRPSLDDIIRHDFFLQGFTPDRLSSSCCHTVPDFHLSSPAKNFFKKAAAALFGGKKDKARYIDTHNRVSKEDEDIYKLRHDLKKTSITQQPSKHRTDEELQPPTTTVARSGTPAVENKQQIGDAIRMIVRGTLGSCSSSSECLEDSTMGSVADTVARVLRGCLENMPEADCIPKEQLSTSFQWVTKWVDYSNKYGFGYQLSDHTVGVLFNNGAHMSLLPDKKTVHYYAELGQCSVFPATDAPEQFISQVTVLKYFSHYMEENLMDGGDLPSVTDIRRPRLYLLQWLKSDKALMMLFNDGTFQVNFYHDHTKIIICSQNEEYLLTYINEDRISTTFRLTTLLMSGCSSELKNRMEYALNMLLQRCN
The target of a further assay is STK32B (Homo sapiens, UniProt Q9NY57). The settings on record: read-out: Percent Control. The protocol:
as §1

A further assay addresses MAPK15 (Homo sapiens, UniProt Q8TD08). The settings on record: read-out: Percent Control. The protocol: as §1
Another assay addresses PLK3 (Homo sapiens, UniProt Q9H4B4). The settings on record: read-out: Percent Control. The protocol: as §1

The structures appear in SMILES notation.

One compound from PMC10507085, “Pharmacological inhibition of TBK1/IKKε blunts immunopathology in a murine model of SARS-CoV-2 infection” (Nature Communications, 2023) can be followed below.

TAOK1, sequence (Q7L7X3 whole entry): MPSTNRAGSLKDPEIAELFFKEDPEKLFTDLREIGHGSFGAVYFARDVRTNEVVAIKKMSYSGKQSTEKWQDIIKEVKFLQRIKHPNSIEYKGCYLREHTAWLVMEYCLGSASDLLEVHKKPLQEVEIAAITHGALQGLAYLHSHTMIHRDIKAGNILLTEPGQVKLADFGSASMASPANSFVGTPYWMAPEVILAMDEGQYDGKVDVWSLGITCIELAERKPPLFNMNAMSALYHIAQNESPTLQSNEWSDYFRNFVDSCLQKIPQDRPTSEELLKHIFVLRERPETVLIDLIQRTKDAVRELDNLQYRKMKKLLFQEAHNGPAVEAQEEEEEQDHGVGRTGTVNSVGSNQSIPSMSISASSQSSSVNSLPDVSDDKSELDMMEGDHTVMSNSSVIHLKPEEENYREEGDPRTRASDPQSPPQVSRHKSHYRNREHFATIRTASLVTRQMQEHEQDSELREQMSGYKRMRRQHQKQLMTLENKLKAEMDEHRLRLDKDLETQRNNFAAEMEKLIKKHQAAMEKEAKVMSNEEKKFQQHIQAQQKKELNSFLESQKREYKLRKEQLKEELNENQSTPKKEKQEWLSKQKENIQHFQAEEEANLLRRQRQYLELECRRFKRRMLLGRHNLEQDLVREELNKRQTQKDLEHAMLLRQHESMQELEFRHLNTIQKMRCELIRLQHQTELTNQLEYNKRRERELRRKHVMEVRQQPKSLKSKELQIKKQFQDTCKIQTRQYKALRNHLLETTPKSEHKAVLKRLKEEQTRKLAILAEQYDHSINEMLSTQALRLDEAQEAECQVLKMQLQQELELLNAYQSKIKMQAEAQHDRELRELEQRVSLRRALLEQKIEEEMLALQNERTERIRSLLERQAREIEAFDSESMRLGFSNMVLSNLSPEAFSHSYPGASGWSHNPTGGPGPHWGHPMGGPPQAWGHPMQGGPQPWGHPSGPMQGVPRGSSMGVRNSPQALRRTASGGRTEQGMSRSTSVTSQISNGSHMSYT
MARK1, sequence (Q9P0L2 whole entry): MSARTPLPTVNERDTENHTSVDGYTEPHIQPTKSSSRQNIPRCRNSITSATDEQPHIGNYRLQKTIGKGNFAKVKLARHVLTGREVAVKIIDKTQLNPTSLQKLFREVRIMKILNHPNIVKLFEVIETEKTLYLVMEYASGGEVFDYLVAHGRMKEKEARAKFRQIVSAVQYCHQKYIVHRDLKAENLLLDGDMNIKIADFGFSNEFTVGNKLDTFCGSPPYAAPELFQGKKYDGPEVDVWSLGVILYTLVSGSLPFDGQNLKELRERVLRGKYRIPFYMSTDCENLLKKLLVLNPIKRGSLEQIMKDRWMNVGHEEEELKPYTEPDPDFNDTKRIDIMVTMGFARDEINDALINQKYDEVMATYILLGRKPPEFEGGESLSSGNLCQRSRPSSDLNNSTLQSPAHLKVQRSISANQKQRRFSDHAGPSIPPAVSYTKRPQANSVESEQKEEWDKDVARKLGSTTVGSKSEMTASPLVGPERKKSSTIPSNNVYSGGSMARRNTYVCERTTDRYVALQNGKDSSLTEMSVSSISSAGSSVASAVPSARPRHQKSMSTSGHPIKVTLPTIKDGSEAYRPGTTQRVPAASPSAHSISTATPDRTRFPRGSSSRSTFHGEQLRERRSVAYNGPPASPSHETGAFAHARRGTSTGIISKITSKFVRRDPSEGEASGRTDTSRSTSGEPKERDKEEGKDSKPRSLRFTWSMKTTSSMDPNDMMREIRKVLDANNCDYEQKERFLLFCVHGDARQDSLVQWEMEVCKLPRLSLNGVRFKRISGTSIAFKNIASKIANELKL
STK32B, sequence (Q9NY57 whole entry): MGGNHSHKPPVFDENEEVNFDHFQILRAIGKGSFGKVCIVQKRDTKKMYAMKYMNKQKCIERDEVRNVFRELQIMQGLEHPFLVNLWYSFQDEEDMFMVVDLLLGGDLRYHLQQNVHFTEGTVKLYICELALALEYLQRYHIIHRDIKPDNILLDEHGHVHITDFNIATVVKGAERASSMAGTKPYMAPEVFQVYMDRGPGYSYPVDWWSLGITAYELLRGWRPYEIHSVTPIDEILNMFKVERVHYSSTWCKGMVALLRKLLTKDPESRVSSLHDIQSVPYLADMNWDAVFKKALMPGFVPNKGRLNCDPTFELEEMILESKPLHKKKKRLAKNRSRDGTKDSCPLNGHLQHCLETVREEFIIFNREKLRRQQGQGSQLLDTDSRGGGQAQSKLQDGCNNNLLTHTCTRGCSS
CDKL3, sequence (Q8IVW4 whole entry): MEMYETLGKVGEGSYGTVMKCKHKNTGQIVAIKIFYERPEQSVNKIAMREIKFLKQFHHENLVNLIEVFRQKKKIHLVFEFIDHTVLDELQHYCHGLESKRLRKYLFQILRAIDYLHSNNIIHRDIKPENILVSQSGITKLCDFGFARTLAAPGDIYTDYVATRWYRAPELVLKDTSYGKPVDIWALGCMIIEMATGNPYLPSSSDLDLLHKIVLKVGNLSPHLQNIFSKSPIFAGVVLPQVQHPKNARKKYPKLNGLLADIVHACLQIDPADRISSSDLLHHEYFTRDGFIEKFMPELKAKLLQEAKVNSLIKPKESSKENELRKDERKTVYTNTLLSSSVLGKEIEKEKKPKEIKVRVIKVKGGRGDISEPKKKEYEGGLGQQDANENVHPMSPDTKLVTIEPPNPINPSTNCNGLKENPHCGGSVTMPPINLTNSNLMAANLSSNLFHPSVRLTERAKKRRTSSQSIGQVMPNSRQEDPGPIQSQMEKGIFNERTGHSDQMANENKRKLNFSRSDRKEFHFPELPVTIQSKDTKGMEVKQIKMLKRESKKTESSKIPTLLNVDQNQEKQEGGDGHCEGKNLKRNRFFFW
PLK3, sequence (Q9H4B4 whole entry): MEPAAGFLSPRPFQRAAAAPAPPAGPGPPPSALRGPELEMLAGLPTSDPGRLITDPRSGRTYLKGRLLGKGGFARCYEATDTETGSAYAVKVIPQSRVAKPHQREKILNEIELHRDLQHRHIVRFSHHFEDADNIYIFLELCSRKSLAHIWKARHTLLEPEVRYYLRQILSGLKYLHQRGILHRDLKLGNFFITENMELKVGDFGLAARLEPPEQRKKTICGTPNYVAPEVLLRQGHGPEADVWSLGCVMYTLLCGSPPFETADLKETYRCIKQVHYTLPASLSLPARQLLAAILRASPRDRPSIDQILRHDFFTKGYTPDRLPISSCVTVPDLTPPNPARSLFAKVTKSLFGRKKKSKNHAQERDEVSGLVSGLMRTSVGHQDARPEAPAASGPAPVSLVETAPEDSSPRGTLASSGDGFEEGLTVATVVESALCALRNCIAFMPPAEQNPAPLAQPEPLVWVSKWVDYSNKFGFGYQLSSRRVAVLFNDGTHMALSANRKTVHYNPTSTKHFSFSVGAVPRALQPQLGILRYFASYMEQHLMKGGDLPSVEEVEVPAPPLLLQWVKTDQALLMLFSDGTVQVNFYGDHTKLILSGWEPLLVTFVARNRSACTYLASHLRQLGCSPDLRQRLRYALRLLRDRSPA
MAP4K2, sequence (Q12851 whole entry): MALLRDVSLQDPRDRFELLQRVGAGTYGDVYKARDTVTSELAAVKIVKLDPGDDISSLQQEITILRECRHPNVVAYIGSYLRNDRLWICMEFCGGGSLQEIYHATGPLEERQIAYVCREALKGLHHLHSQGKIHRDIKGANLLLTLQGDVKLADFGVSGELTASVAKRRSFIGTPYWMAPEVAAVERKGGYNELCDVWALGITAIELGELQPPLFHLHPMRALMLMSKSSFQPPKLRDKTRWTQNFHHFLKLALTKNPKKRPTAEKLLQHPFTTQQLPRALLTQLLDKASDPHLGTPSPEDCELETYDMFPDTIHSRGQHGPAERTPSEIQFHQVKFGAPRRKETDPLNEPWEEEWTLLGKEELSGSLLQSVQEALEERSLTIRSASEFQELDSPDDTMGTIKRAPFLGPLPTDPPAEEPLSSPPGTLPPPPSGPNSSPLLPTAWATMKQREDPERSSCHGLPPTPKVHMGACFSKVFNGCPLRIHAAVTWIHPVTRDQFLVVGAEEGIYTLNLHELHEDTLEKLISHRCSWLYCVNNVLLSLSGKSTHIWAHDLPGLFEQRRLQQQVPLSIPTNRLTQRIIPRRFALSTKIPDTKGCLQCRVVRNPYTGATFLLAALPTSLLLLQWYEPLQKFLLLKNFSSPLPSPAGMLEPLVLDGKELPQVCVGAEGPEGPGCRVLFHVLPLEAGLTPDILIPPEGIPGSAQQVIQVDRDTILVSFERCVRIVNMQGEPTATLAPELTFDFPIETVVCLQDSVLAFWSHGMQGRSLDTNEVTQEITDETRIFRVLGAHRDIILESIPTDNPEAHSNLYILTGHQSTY

Broadly, the Kd is the constant that tells how readily two partners part at equilibrium. Take `Oc1ccc(C2=Cc3ccc(O)cc3OC2)cc1` [compound 1, idronoxil]: the remaining binding at 10 µM at MAP4K2 came out at 26%; on CSK, 100%; at CSNK2A2, 35%; at CDKL3, 59%; on PFCDPK1(P.falciparum), 80%; at MAP3K9 it was 82%. The remaining binding at 10 µM at IKBKE worked out at 65%; at PRKD2 it was 94%; at TAOK1 (read-out: Percent Control), 16%; on STK32A it was 94%; in [1], 94%; on BMPR1A it was 89%. The remaining binding at 10 µM at PAK2 was found to be 49%; at MYLK4, 26%; on NEK5, 89%; at MARK1, 91%; on PLK2, 80%; on STK32B, 100%. Besides, the figures for the remaining binding at 10 µM on MAPK15 and on PLK3 were 49% and 100%, respectively. On TAOK1, the Kd came to 4.7 µM.
